Data: PubChem BioAssay AID1918938 (Molecular Pharmacology Branch, DTP, NCI, 2023)

Test system: 556581-035-R-J1-PDC complex spheroid viability
Assay: Anticancer human tumor 556581-035-R-J1-PDC patient-derived ovarian carcinoma cell line growth inhibition
Conditions: for IC50: curve of first compound; for viability, T/C: stronger effect = lower value
Summary of the method: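 Drug combinations with the LSD1 inhibitor iadademstat tested on tumor cells co-cultured as spheroids with endothelial cells and mesenchymal stem cells. Concentrations descended in half-log increments from clinical Cmax or 10 microM.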

[1] = second compound 0.1 µM, first compound 0.0316 µM
[2] = second compound 0.1 µM, first compound 0.1 µM
[3] = second compound 0.1 µM, first compound 0.316 µM
[4] = second compound 0.1 µM, first compound 1 µM
[5] = second compound 0.1 µM, first compound 3.16 µM
[6] = second compound 0.1 µM, first compound 10 µM
[7] = second compound 0.316 µM, first compound 0.0316 µM
[8] = second compound 0.316 µM, first compound 0.1 µM
[9] = second compound 0.316 µM, first compound 0.316 µM
[10] = second compound 0.316 µM, first compound 1 µM
[11] = second compound 0.316 µM, first compound 3.16 µM
[12] = second compound 0.316 µM, first compound 10 µM
[13] = second compound 1 µM, first compound 0.0316 µM
[14] = second compound 1 µM, first compound 0.1 µM
[15] = second compound 1 µM, first compound 0.316 µM
[16] = second compound 1 µM, first compound 1 µM
[17] = second compound 1 µM, first compound 3.16 µM
[18] = second compound 1 µM, first compound 10 µM
[19] = second compound 3.16 µM, first compound 0.0316 µM
[20] = second compound 3.16 µM, first compound 0.1 µM
[21] = second compound 3.16 µM, first compound 0.316 µM
[22] = second compound 3.16 µM, first compound 1 µM
[23] = second compound 3.16 µM, first compound 3.16 µM
[24] = second compound 3.16 µM, first compound 10 µM
[25] = second compound 10 µM, first compound 0.0316 µM
[26] = second compound 10 µM, first compound 0.1 µM
[27] = second compound 10 µM, first compound 0.316 µM
[28] = second compound 10 µM, first compound 1 µM
[29] = second compound 10 µM, first compound 3.16 µM
[30] = second compound 10 µM, first compound 10 µM
[31] = second compound 0.1 µM, first compound 0.00316 µM
[32] = second compound 0.1 µM, first compound 0.01 µM
[33] = second compound 0.316 µM, first compound 0.00316 µM
[34] = second compound 0.316 µM, first compound 0.01 µM
[35] = second compound 1 µM, first compound 0.00316 µM
[36] = second compound 1 µM, first compound 0.01 µM
[37] = second compound 3.16 µM, first compound 0.00316 µM
[38] = second compound 3.16 µM, first compound 0.01 µM
[39] = second compound 10 µM, first compound 0.00316 µM
[40] = second compound 10 µM, first compound 0.01 µM
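Note: spheroids exposed to agents for seven days.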
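Throughout, for viability, T/C: 100% = DMSO vehicle control wells.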

CC(C)c1c(-c2ccccc2)nc2c(C#N)c[nH]n2c1=O + NC1CC1c1ccc(-c2cccc(O)c2)cc1
IC50 (second compound 0.1 µM): > 10000 nM
IC50 (second compound 0.316 µM): > 10000 nM
IC50 (second compound 1 µM): > 10000 nM
IC50 (second compound 3.16 µM): > 10000 nM
IC50 (second compound 10 µM): > 10000 nM
viability, T/C [1]: 100%
viability, T/C [2]: 103%
viability, T/C [3]: 95.8%
viability, T/C [4]: 89.3%
viability, T/C [5]: 88.8%
viability, T/C [6]: 64%
viability, T/C [7]: 90.6%
viability, T/C [8]: 82.5%
viability, T/C [9]: 86.4%
viability, T/C [10]: 85.2%
viability, T/C [11]: 73.6%
viability, T/C [12]: 79.9%
viability, T/C [13]: 96.4%
viability, T/C [14]: 101%
viability, T/C [15]: 79.7%
viability, T/C [16]: 76.5%
viability, T/C [17]: 69.8%
viability, T/C [18]: 60.2%
viability, T/C [19]: 85.6%
viability, T/C [20]: 82.5%
viability, T/C [21]: 84.8%
viability, T/C [22]: 86.7%
viability, T/C [23]: 77.9%
viability, T/C [24]: 69.3%
viability, T/C [25]: 92.6%
viability, T/C [26]: 91.2%
viability, T/C [27]: 89.4%
viability, T/C [28]: 75.4%
viability, T/C [29]: 66.1%
viability, T/C [30]: 59.6%

COc1ccc([C@@H](O)c2cc(-c3ncnc4cc(N5CCOCC5)ccc34)c(F)cc2Cl)nn1 + NC1CC1c1ccc(-c2cccc(O)c2)cc1
IC50 (second compound 0.1 µM): 853 nM
IC50 (second compound 0.316 µM): 932 nM
IC50 (second compound 1 µM): 1000 nM
IC50 (second compound 3.16 µM): 621 nM
IC50 (second compound 10 µM): 1050 nM
viability, T/C [1]: 102%
viability, T/C [2]: 87%
viability, T/C [3]: 68.2%
viability, T/C [4]: 46.3%
viability, T/C [5]: 34.5%
viability, T/C [6]: 26.9%
viability, T/C [7]: 85.2%
viability, T/C [8]: 75.9%
viability, T/C [9]: 62.7%
viability, T/C [10]: 48.4%
viability, T/C [11]: 37.9%
viability, T/C [12]: 27.3%
viability, T/C [13]: 82.5%
viability, T/C [14]: 79.8%
viability, T/C [15]: 55.1%
viability, T/C [16]: 52.6%
viability, T/C [17]: 38.7%
viability, T/C [18]: 25.3%
viability, T/C [19]: 82.8%
viability, T/C [20]: 84.2%
viability, T/C [21]: 64.5%
viability, T/C [22]: 39.7%
viability, T/C [23]: 34%
viability, T/C [24]: 30.1%
viability, T/C [25]: 97.4%
viability, T/C [26]: 79.6%
viability, T/C [27]: 64.8%
viability, T/C [28]: 48.5%
viability, T/C [29]: 41.3%
viability, T/C [30]: 24.4%

CC[C@@]1(O)C(=O)OCc2c1cc1n(c2=O)Cc2cc3c(CN(C)C)c(O)ccc3nc2-1 + NC1CCC(NC2CC2c2ccccc2)CC1
IC50 (second compound 0.1 µM): 14.7 nM
IC50 (second compound 0.316 µM): 13.9 nM
IC50 (second compound 1 µM): 14.4 nM
IC50 (second compound 3.16 µM): 18.8 nM
IC50 (second compound 10 µM): 11.5 nM
viability, T/C (second compound 0.1 µM, first compound 0.000316 µM): 78.7%
viability, T/C (second compound 0.1 µM, first compound 0.001 µM): 91.5%
viability, T/C [31]: 79%
viability, T/C [32]: 57.6%
viability, T/C [1]: 31.9%
viability, T/C [2]: 9.52%
viability, T/C (second compound 0.316 µM, first compound 0.000316 µM): 91.4%
viability, T/C (second compound 0.316 µM, first compound 0.001 µM): 82.2%
viability, T/C [33]: 81.8%
viability, T/C [34]: 55%
viability, T/C [7]: 32.5%
viability, T/C [8]: 13.3%
viability, T/C (second compound 1 µM, first compound 0.000316 µM): 79%
viability, T/C (second compound 1 µM, first compound 0.001 µM): 81.3%
viability, T/C [35]: 72.2%
viability, T/C [36]: 58%
viability, T/C [13]: 32.8%
viability, T/C [14]: 10.1%
viability, T/C (second compound 3.16 µM, first compound 0.000316 µM): 72.5%
viability, T/C (second compound 3.16 µM, first compound 0.001 µM): 89.8%
viability, T/C [37]: 73.9%
viability, T/C [38]: 63.8%
viability, T/C [19]: 38.5%
viability, T/C [20]: 10%
viability, T/C (second compound 10 µM, first compound 0.000316 µM): 64.4%
viability, T/C (second compound 10 µM, first compound 0.001 µM): 67.1%
viability, T/C [39]: 64.8%
viability, T/C [40]: 51.8%
viability, T/C [25]: 29.2%
viability, T/C [26]: 7.41%

COc1cc(C2c3cc4c(cc3C(OC3OC5COC(C)OC5C(O)C3O)C3COC(=O)C23)OCO4)cc(OC)c1O (stereo not given) + NC1CCC(NC2CC2c2ccccc2)CC1
IC50 (second compound 0.1 µM): 481 nM
IC50 (second compound 0.316 µM): 451 nM
IC50 (second compound 1 µM): 559 nM
IC50 (second compound 3.16 µM): 501 nM
IC50 (second compound 10 µM): 330 nM
viability, T/C (second compound 0.1 µM, first compound 0.00949 µM): 86.7%
viability, T/C (second compound 0.1 µM, first compound 0.03 µM): 84.7%
viability, T/C (second compound 0.1 µM, first compound 0.0949 µM): 68.6%
viability, T/C (second compound 0.1 µM, first compound 0.3 µM): 55.5%
viability, T/C (second compound 0.1 µM, first compound 0.949 µM): 42.3%
viability, T/C (second compound 0.1 µM, first compound 3 µM): 26.2%
viability, T/C (second compound 0.316 µM, first compound 0.00949 µM): 107%
viability, T/C (second compound 0.316 µM, first compound 0.03 µM): 84.7%
viability, T/C (second compound 0.316 µM, first compound 0.0949 µM): 75.3%
viability, T/C (second compound 0.316 µM, first compound 0.3 µM): 58.6%
viability, T/C (second compound 0.316 µM, first compound 0.949 µM): 36.1%
viability, T/C (second compound 0.316 µM, first compound 3 µM): 23.9%
viability, T/C (second compound 1 µM, first compound 0.00949 µM): 76.8%
viability, T/C (second compound 1 µM, first compound 0.03 µM): 76.2%
viability, T/C (second compound 1 µM, first compound 0.0949 µM): 68.3%
viability, T/C (second compound 1 µM, first compound 0.3 µM): 58.8%
viability, T/C (second compound 1 µM, first compound 0.949 µM): 42.6%
viability, T/C (second compound 1 µM, first compound 3 µM): 19.2%
viability, T/C (second compound 3.16 µM, first compound 0.00949 µM): 88.6%
viability, T/C (second compound 3.16 µM, first compound 0.03 µM): 66.5%
viability, T/C (second compound 3.16 µM, first compound 0.0949 µM): 74.9%
viability, T/C (second compound 3.16 µM, first compound 0.3 µM): 53.5%
viability, T/C (second compound 3.16 µM, first compound 0.949 µM): 45.8%
viability, T/C (second compound 3.16 µM, first compound 3 µM): 23.4%
viability, T/C (second compound 10 µM, first compound 0.00949 µM): 71.3%
viability, T/C (second compound 10 µM, first compound 0.03 µM): 68.4%
viability, T/C (second compound 10 µM, first compound 0.0949 µM): 68.7%
viability, T/C (second compound 10 µM, first compound 0.3 µM): 48.3%
viability, T/C (second compound 10 µM, first compound 0.949 µM): 38.8%
viability, T/C (second compound 10 µM, first compound 3 µM): 28.4%

Nc1ncn(C2CC(O)C(CO)O2)c(=O)n1 (stereo not given) + NC1CCC(NC2CC2c2ccccc2)CC1
IC50 (second compound 0.1 µM): > 1000 nM
IC50 (second compound 0.316 µM): > 1000 nM
IC50 (second compound 1 µM): > 1000 nM
IC50 (second compound 3.16 µM): > 1000 nM
IC50 (second compound 10 µM): > 1000 nM
viability, T/C [31]: 96%
viability, T/C [32]: 98%
viability, T/C [1]: 87.2%
viability, T/C [2]: 80%
viability, T/C [3]: 79.3%
viability, T/C [4]: 77.2%
viability, T/C [33]: 87.8%
viability, T/C [34]: 90.2%
viability, T/C [7]: 84%
viability, T/C [8]: 82.2%
viability, T/C [9]: 79.1%
viability, T/C [10]: 77.7%
viability, T/C [35]: 96.5%
viability, T/C [36]: 84.3%
viability, T/C [13]: 89.5%
viability, T/C [14]: 75.2%
viability, T/C [15]: 71.8%
viability, T/C [16]: 76.8%
viability, T/C [37]: 88.9%
viability, T/C [38]: 84.5%
viability, T/C [19]: 82.7%
viability, T/C [20]: 67.2%
viability, T/C [21]: 80.5%
viability, T/C [22]: 76.7%
viability, T/C [39]: 73.8%
viability, T/C [40]: 82.5%
viability, T/C [25]: 76.4%
viability, T/C [26]: 70.8%
viability, T/C [27]: 65.9%
viability, T/C [28]: 64.7%
